Calls of active or inactive are those of the source. No cut-off for these calls is given here.
Tests used:
[1] = target: D(2) dopamine receptor (Homo sapiens) (UniProt P14416); experiment: Dopamine D2 (spiroperidol) receptor binding affinity
[2] = (§1) Compound was tested for functional dopamine antagonism in normalization assay (i.e. AS: reversal of apomorphine induced swimming ED50s in mg/kg orally); conditions: po
[3] = target: Serotonin 2 (5-HT2) receptor (Homo sapiens) (UniProt P41595+P28223+P28335)
Sequence of Serotonin 2 (5-HT2) receptor (Homo sapiens) (P28223 whole entry, looked up): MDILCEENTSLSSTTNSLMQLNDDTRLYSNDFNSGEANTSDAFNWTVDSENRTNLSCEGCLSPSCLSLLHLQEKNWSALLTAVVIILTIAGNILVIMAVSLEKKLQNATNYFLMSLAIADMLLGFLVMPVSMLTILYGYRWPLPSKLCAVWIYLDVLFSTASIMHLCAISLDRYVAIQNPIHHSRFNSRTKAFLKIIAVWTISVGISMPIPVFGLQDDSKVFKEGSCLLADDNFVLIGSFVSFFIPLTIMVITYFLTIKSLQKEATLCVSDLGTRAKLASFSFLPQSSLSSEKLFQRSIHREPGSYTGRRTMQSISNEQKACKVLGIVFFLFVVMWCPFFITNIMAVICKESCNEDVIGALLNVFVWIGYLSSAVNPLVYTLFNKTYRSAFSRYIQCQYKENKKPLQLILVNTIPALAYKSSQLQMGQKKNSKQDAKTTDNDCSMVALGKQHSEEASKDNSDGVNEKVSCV
Sequence of Serotonin 2 (5-HT2) receptor (Homo sapiens) (P28335 whole entry, looked up): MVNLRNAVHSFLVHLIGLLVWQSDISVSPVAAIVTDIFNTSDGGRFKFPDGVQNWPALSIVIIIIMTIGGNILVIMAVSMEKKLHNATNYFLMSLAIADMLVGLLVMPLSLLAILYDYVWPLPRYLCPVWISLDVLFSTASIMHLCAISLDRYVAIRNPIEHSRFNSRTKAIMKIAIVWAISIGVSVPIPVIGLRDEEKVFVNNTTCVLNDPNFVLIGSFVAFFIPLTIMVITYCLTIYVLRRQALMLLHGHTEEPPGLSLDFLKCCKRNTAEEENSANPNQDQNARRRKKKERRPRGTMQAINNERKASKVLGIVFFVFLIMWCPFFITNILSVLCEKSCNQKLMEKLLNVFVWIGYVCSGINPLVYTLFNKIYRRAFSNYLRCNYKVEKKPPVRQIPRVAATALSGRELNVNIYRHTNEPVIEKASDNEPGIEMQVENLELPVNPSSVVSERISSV
Sequence of Serotonin 2 (5-HT2) receptor (Homo sapiens) (P41595 whole entry, looked up): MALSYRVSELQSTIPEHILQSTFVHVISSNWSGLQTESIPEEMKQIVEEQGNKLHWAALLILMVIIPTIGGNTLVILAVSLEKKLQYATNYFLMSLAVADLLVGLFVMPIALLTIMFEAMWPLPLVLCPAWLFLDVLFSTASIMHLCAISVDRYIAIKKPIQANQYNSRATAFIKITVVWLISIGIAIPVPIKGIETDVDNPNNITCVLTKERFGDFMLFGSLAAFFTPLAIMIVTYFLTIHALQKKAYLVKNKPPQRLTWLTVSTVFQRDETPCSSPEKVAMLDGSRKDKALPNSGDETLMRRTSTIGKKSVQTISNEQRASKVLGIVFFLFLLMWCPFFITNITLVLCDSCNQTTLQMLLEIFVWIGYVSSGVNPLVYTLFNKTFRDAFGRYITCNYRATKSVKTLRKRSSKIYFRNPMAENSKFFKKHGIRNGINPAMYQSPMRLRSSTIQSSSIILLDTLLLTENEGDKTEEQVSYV
Description: 5-hydroxytryptamine 2 receptor binding affinity

[4] = target: D(1A) dopamine receptor (Homo sapiens) (UniProt P21728)
Sequence of D(1A) dopamine receptor (Homo sapiens) (P21728 whole entry): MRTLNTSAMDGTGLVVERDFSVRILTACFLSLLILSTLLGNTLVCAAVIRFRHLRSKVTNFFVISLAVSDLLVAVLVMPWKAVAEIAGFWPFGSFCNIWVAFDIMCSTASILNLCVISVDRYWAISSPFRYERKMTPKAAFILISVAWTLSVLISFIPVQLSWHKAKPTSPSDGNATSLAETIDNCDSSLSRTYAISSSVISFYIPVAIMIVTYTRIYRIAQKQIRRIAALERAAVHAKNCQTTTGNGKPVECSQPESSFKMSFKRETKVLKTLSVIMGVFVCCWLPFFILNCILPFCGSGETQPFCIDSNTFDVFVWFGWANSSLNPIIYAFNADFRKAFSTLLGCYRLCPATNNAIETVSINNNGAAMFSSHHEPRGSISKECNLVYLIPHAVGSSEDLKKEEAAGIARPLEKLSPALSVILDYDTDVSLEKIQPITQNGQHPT
Description: Dopamine D1 (SCH-23390) receptor binding affinity

[5] = test system: Rattus norvegicus; experiment: as §1; conditions: po
[6] = target: D(2) dopamine receptor (Homo sapiens) (UniProt P14416); experiment: Compound was tested for dopamine D2 (spiroperidol) receptor binding affinity, at 5000 nM concentration
[7] = target: D(1A) dopamine receptor (Homo sapiens) (UniProt P21728); experiment: Compound was tested for dopamine D1 (SCH-23390) receptor binding affinity, at 1000 nM concentration
[8] = target: D(2) dopamine receptor (Homo sapiens) (UniProt P14416); experiment: Compound was tested for dopamine D2 (spiroperidol) receptor binding affinity at 2500 nM concentration
[9] = target: D(1A) dopamine receptor (Homo sapiens) (UniProt P21728); experiment: Compound was tested for dopamine D1 (SCH-23390) receptor binding affinity, at 2500 nM concentration
[10] = target: D(2) dopamine receptor (Homo sapiens) (UniProt P14416); experiment: Compound was tested for dopamine D2 (spiroperidol) receptor binding affinity; Not active
[11] = target: D(1A) dopamine receptor (Homo sapiens) (UniProt P21728); experiment: Compound was tested for dopamine D1 (SCH-23390) receptor binding affinity; Not active

Sequence of D(2) dopamine receptor (Homo sapiens) (P14416 whole entry): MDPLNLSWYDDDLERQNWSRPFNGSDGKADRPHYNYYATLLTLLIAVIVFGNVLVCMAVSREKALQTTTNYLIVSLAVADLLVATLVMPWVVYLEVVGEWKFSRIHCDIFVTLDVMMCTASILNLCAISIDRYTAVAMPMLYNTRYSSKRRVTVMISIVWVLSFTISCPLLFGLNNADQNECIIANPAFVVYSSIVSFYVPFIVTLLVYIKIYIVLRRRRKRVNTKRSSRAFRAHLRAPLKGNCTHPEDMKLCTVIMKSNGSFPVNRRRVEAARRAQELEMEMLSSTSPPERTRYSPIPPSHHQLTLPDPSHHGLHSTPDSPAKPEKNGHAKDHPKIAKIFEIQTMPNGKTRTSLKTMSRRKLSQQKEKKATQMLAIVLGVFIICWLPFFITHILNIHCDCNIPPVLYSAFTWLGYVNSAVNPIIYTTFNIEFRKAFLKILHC

## c1ccc2c(c1)C1CC2(CNCCCN2CCOCC2)c2ccccc21
[1]
  Binding affinity: 222 nM
[2]
  ED50: > 80 mg/kg
[3]
  Binding affinity: 21 nM
[4]
  Binding affinity: 349 nM

## CN1CCN(C2=Nc3cc(Cl)ccc3Nc3ccccc32)CC1 [CLOZAPINE]
[5]
  ED50: 40 mg/kg

## CN1CCN(C(=O)C23CC(c4ccccc42)c2ccccc23)CC1
[6]
  inhibition: 0%
[2]
  ED50: > 80 mg/kg

## O[C@@H](c1cccnc1)C1CCN(CC23CC(c4ccccc42)c2ccc(Cl)cc23)CC1 (some centres undefined)
[1]
  Binding affinity: 14 nM
[2]
  ED50: 5 mg/kg
[3]
  Binding affinity: 4 nM
[4]
  Binding affinity: 63 nM

## Clc1ccc2c(c1)C1(CN3CCC(Nc4ncccn4)CC3)CC2c2ccccc21 (centres undefined)
[1]
  Binding affinity: 49 nM
[2]
  ED50: 5 mg/kg
[3]
  Binding affinity: 2 nM
[4]
  Binding affinity: 351 nM

## CC[S+]([O-])c1ncccc1C1(O)CCN(CC23CC(c4ccccc42)c2ccccc23)CC1 (centres undefined)
[1]
  Binding affinity: 42 nM
[2]
  ED50: 0.6 mg/kg
[3]
  Binding affinity: 39 nM
[4]
  Binding affinity: 13 nM

## c1ccc2c(c1)C1CC2(CN2CCC(N3CCOCC3)CC2)c2ccccc21
[1]
  Binding affinity: 57 nM
[7]
  inhibition: 17%
[2]
  ED50: 10 mg/kg

## C[C@@H]1CN(CCCNCC23CC(c4ccccc42)c2ccccc23)C[C@@H](C)O1
[1]
  Binding affinity: 36 nM
[2]
  ED50: > 80 mg/kg
[3]
  Binding affinity: 11 nM
[4]
  Binding affinity: 60 nM

## CCOC(OCC)C(=O)NC1CCN(CC23CC(c4ccccc42)c2ccc(Cl)cc23)CC1 (centres undefined)
[1]
  Binding affinity: 25 nM
[2]
  ED50: 2.5 mg/kg
[3]
  Binding affinity: 40 nM
[4]
  Binding affinity: 76 nM

## CN1CCN(CC23CC(c4ccccc42)c2ccccc23)CC1
[8]
  inhibition: 18%
[9]
  inhibition: 14%
[2]
  ED50: > 80 mg/kg
[3]
  Binding affinity: 314 nM

## c1ccc(Cn2cncc2CCNCC23CC(c4ccccc42)c2ccccc23)cc1
[1]
  Binding affinity: 101 nM
[2]
  ED50: 80 mg/kg
[3]
  Binding affinity: 84 nM
[4]
  Binding affinity: 610 nM

## c1cnc(NCCCNCC23CC(c4ccccc42)c2ccccc23)nc1
[1]
  Binding affinity: 265 nM
[2]
  ED50: > 80 mg/kg
[3]
  Binding affinity: 227 nM
[4]
  Binding affinity: 132 nM

## CC(C)(C)C1(O)CCN(CC23CC(c4ccccc42)c2ccc(Cl)cc23)CC1 (centres undefined)
[1]
  Binding affinity: 5 nM
[2]
  ED50: 0.6 mg/kg
[3]
  Binding affinity: 1 nM
[4]
  Binding affinity: 7 nM

## NCC12CC(c3ccccc31)c1ccccc12
[10]
  Binding affinity: inactive
[11]
  Binding affinity: inactive
[2]
  ED50: > 80 mg/kg

Reference: ChEMBL document CHEMBL1128790, “Putative atypical antipsychotics with mixed dopaminergic (D1, D2) and serotonergic (5HT2) activity: The design evolution of ZD3638” (1995)
